“And” between values parts separate entries of the source, which are not always exact repeats. Identical values can stand only once.
Legend:
Format in all cases: in vivo
[1] = tested on: Poa annua; assay: Pre-emergence glasshouse pot study, seedling emergence and growth (OECD guideline); conditions: for Mean Final Foliar Fresh Weights Expressed as Percentage of Untreated Controls / Mean Final Foliar Fresh Weights: Poa annua; for Mean Final Foliar Fresh Weights: 21 days after 50% emergence, untreated 0.90
Description: (§1) A study was carried out to determine the relative biological activity of the D and L isomers of Napropamide when applied pre-emergence to one monocotyledon and one dicotyledon species. Napropamide, containing 450 grammes active substance per liter (g a.s./L) formulated as a suspension concentrate and the D-isomer of Napropamide (1000 g a.s./L) were applied at a range of concentrations from 0.1575 to 1.26 kilograms of active substance per hectare (kg a.s/Ha).
(§2) EC50 values in kg a.s./Ha were calculated from the dose response data using final foliar fresh weight data for each species and was used to determine the relative biological activity of the D and L isomers of Napropamide. The methodology was based on the OECD guideline […], according to the revision of July 2006 for seedling emergence and growth. The study was conducted to GLP standards.
(§3) Seeds were sown directly into non-porous plastic pots containing the following mix of soil: 10 L of sterile loam+4 L of coarse grit (washed quartztite, nominal 4 mm)+10 L of sand. This soil mix was characterized as a sandy loam with an organic carbon content of 1.5% and pH of 7.2. Details of the plant species, number of seeds per pot and pot size are shown below. All seeds were sown 1-2 cm deep.
(§4) The highest concentration of Napropamide was prepared by measuring a calculated volume by weight and diluting with tap water to the full required volume. Lower concentrations were prepared by serial dilution with water. D-Napropamide was prepared by dissolving the calculated weight in acetone and adding water to give the full required volume in 50:50 acetone+water. Lower concentrations were prepared by serial dilution with 50:50 acetone+water. D-Napropamide dissolved completely.
(§5) The sprayer was calibrated within 24 hours prior to application by weight of 15 applications of water to six 86 mm ID petri dishes. The total weight of water over a known area enabled a simple calculation giving the volume rate to be made. The volume rate achieved was within the range specified in the study plan (200 L/Ha±10%).
(§6) Replication was 5 pots per treatment for each plant species. After application, pots were placed on the bench in glasshouse in randomized blocks. Plants were assessed for emergence, mortality and visual injury (expressed as a percentage of the untreated control: 0%=no injury, 1-39%=slight injury, 40-69%=moderate injury, 70-99%=severe injury and 100%=all plants dead) at 14 and 21 days after 50% emergence in the untreated controls. Fresh weights (biomass above soil level) were also recorded 21 days after 50% emergence in the untreated controls. Plants were fully turgid at the time of harvest.
(§7) Assessment data was recorded on pro-forma sheets and entered into Gylling ARM 7 software. EC50 values were calculated using audited means data from the final assessments (21 day). Gylling ARM 7.0 software used a simple probit—maximum likelihood estimation method with 99% confidence level. The EC50 values generated were then visually checked against the means data table to verify they appeared correct.

[2] = tested on: Stellaria media; assay: as above; conditions: for EC50 based on the final fresh weights: Stellaria media (dicot), 21 day assessment, probit; for Mean Final Foliar Fresh Weights Expressed as Percentage of Untreated Controls / Mean Final Foliar Fresh Weights: Stellaria media; for Mean Final Foliar Fresh Weights: 21 days after 50% emergence, untreated 1.44
Description: as §1, §2, §3, §4, §5, §6, §7

[3] = tested on: Ranunculus repens; assay: Field trial on strawberries, pre-emergence, visual % control
Description: (§8) Field trials were conducted on various moncotyledonous weeds and dicotyledonous weeds and the effect of D-isomer of Napropamide was studied to understand the selective and effective control of dicotyledonous weeds over monocotyledonous weeds. The effect of D-isomer of Napropamide in comparison to racemic napropramide and untreated was studied, which is concluded hereinbelow:
(§9) Several small plot replicated trials were carried out to evaluate and/or compare the efficacy of D-Napropamide against a range of indicated annual broadleaved and grass weed species in the indicated crops. No problems were encountered during mixing or application of any of the product formulations or tank mixtures under test.
(§10) In each of the reported data, the homogeneity of variance was tested by Bartlett's test. Wherever this test indicated no homogeneity of variance, the transformed values were used for analysis of variance. Assessment data was then analyzed using a two-way analysis of variance (ANOVA) on untransformed and transformed data. The probability of no significant differences occurring between treatment means was calculated as the F probability value (p(F)). A mean comparison test was only performed and reported when the treatment of F that was calculated during analysis of variance was significant at the observed significance level specified for the mean comparison test. Where the data was transformed, treatment means in the reports were presented in their detransformed state, with the appropriate letter test and mean descriptions (LSD and standard deviation) derived from the transformed ANOVA.
Trial was carried out on strawberries to evaluate the efficacy and selectivity of D-Napropamide and equivalent rate of Devrinol (Napropramide) applied pre-emergence. […] The percentage control of D-isomer of Napropamide and Devrinol was assessed in comparison to the untreated after 224 days after application.

[4] = tested on: Papaver rhoeas; assay: as above
Description: as §8, §9, §10
(§11) Trial was carried out on strawberries to evaluate the efficacy and selectivity of D-Napropamide and equivalent rate of Devrinol (Napropramide) applied pre-emergence. […]

[5] = tested on: Senecio vulgaris; assay: as above
Description: as §8, §9, §10, §11

[6] = tested on: Aperaspica-venti; assay: Field trial in winter oilseed rape, pre-emergence, % control
Description: as §8, §9, §10
(§12) Trials were conducted to evaluate the selectivity and efficacy of D-isomer of Napropamide when applied pre-emergence to oilseed rape crop. The % control of weed was assessed at regular intervals.

[7] = tested on: Cirsium arvense; assay: as above
Description: as §8, §9, §10, §12

[8] = tested on: Fallopia convolvulus; assay: as above
Description: as §8, §9, §10, §12

[9] = tested on: Senecio vulgaris; assay: as above
Description: as §8, §9, §10, §12

[10] = tested on: Veronica persica; assay: as above
Description: as §8, §9, §10, §12

[11] = tested on: Matricaria sp.; assay: Field trial in winter oilseed rape, pre-emergence, % control and ground cover; conditions: 450 g/L @ 2.8 L/Ha
Description: as §8, §9, §10, §12

[12] = tested on: Digitaria sanguinalis; assay: Plot trial, % control of Digitaria sanguinalis; conditions: 9 L/Ha of 450 g/L formulation
Description: as §8, §9
as §10, with “ANOVA. […]” for “ANOVA.”

CCN(CC)C(=O)C(C)Oc1cccc2ccccc12 (racemic) [Napropamide, N,N-diethyl-2-(α-naphthoxy)propionamide]
EC50 based on the final fresh weights ([1]; Poa annua (monocot), 21 day assessment, probit): 0.72 kg/Ha
Mean Final Foliar Fresh Weights Expressed as Percentage of Untreated Controls ([1]; rate 0.1575 kg/Ha): 100%
Mean Final Foliar Fresh Weights ([1]; rate 0.315 kg/Ha pre-emergence): 0.57 g
Mean Final Foliar Fresh Weights ([1]; rate 0.63 kg/Ha pre-emergence): 0.98 g
Mean Final Foliar Fresh Weights Expressed as Percentage of Untreated Controls ([1]; rate 1.26 kg/Ha): 23%
EC50 based on the final fresh weights [2]: 0.22 kg/Ha
Mean Final Foliar Fresh Weights Expressed as Percentage of Untreated Controls ([2]; rate 0.1575 kg/Ha): 70%
Mean Final Foliar Fresh Weights ([2]; rate 0.315 kg/Ha pre-emergence): 0.3 g
Mean Final Foliar Fresh Weights ([2]; rate 0.63 kg/Ha pre-emergence): 0.328 g
Mean Final Foliar Fresh Weights Expressed as Percentage of Untreated Controls ([2]; rate 1.26 kg/Ha): 16%
Percentage Control at 224 DAA ([3]; 5 L/Ha of 450 g/L formulation): 33.3%
Percentage Control at 224 DAA ([3]; 7 L/Ha of 450 g/L formulation): 66.7%
Percentage Control at 224 DAA ([3]; 14 L/Ha of 450 g/L formulation): 83.3%
Percentage Control at 70 DAA ([4]; 5 L/Ha of 450 g/L formulation): 62.5%
Percentage Control at 70 DAA ([4]; 7 L/Ha of 450 g/L formulation): 81.7%
Percentage Control at 70 DAA ([4]; 14 L/Ha of 450 g/L formulation): 82.5%
Percentage Control at 70 DAA ([5]; 5 L/Ha of 450 g/L formulation): 37.5%
Percentage Control at 70 DAA ([5]; 7 L/Ha of 450 g/L formulation): 25.0%
Percentage Control at 70 DAA ([5]; 14 L/Ha of 450 g/L formulation): 12.5%
Percentage Control at 63 DAA ([6]; 450 g/L @ 1.6 L/Ha): 40.00%
Percentage Control at 63 DAA ([6]; 450 g/L @ 2.8 L/Ha): 76.25% and 67.50%
Mean Percentage Control ([7]; 450 g/L @ 2.8 L/Ha): 20.00%
Conclusion: control of the weed at equivalent dosage ([7]; Cirsium arvense, dicot): negligible control
Percentage Control at 63 DAA ([8]; 450 g/L @ 1.6 L/Ha): 30.00%
Percentage Control at 63 DAA ([8]; 450 g/L @ 2.8 L/Ha): 0.00%
Percentage Control at 63 DAA ([9]; 450 g/L @ 1.6 L/Ha): 36.96%
Percentage Control at 63 DAA ([9]; 450 g/L @ 2.8 L/Ha): 4.65%
Percentage Control at 63 DAA ([10]; 450 g/L @ 1.6 L/Ha): 75.00%
Percentage Control at 63 DAA ([10]; 450 g/L @ 2.8 L/Ha): 75.00%
Percentage ground cover %, value in brackets (untreated 0.0%) [11]: (52.8%)
Percentage Control at 49 DAA ([11]; oilseed rape): 61.25%
Percentage ground cover % ([11]; untreated 4.50): 2.13%
% Control ([12]; 16 DAA): 12.50%
% Control ([12]; 33 DAA): 15.00%

CCN(CC)C(=O)[C@H](C)Oc1cccc2ccccc12 [L-Napropamide, reference compound]
EC50 based on the final fresh weights [2]: 1.26 kg/Ha

— patent publication US9307765B2, “Selective weed control using D-napropamide” (UPL Limited, priority 2013, dated 2016)
